Test results taken from publication PMC6112376, “Comprehensive Analyses and Prioritization of Tox21 10K Chemicals Affecting Mitochondrial Function by in-Depth Mechanistic Studies” (Environmental Health Perspectives, 2018).
Like-named read-outs stand apart in the source and are kept apart here.

Tests used:
[1] = test system: Nrf2/ARE (ARE-bla HepG2 cells); assay: ARE β-lactamase reporter gene assay; type: cell-based, human; settings: 16 h incubation; mean±SD of three experiments
[2] = test system: HepG2 cells; assay: ROS-Glo hydrogen peroxide (ROS) assay; type: cell-based, human; settings: Homo sapiens, HepG2, 2 h, read-out: ROS (HepG2) EC50
[3] = test system: rat primary hepatocytes
[4] = test system: Caenorhabditis elegans (Bristol N2); settings: Bristol N2 (wild type), Caenorhabditis elegans, in vivo
[5] = test system: Caenorhabditis elegans (Bristol N2); assay: C. elegans larval development and growth assay
[6] = test system: HepG2 cells; assay: cells; settings: Homo sapiens
[7] = test system: HepG2 cells; assay: Oxygen consumption, Seahorse XF24 analyzer; type: cell-based, human
[8] = test system: isolated rat liver mitochondria; assay: Oxygen consumption, Clark-type oxygen electrode; type: biochemical
[9] = test system: Caenorhabditis elegans strain PE255; settings: PE255 [sur-5::luc+::gfp; rol-6(su1006)], Caenorhabditis elegans, in vivo
[10] = test system: HepG2 cells; assay: Intracellular ATP content (cell viability) assay; type: cell-based, human; settings: Homo sapiens, HepG2, 40 h
[11] = test system: rat primary hepatocytes; assay: MMP assay in rat primary hepatocytes; settings: Rattus norvegicus, Hepatocyte, 1 h
[12] = test system: Caenorhabditis elegans strain PE255; assay: In vivo C. elegans ATP status assay; settings: Caenorhabditis elegans, read-out: LEC LUM: lowest effect concentration for luminescence, a measure of nematode ATP content
[13] = test system: HeLa cells expressing YFP-Parkin; assay: Parkin translocation assay; type: cell-based, human
[14] = test system: HepG2 cells; settings: read-out: MMP assays IC50 (µM) qHTS-HepG2; cited from earlier work

With `CCOCn1c(-c2ccc(Cl)cc2)c(C#N)c(Br)c1C(F)(F)F` [Chlorfenapyr] the “ARE (HepG2) EC50” value [1] was “Inactive”, the EC50 [2] was 1930 nM and the “MMP assays efficacy (%) Rat Hepatocytes” value [3] was -109±23%. For the same compound, the “Rat hepatocytes (efficacy) (MMP)” value [3] was 0.34±0.11 ( −90.8±10.1 ) %, the “inhibitory effect at (concentration) on larval growth in the C. elegans assay” value [4] was 0.05 µM and the “larval growth effect at 0.5μM” value ([5]; 0.5 µM) was “severe larval growth arrest”. The minimal effective concentration ([5]; Caenorhabditis elegans, read-out: LEC EXT: lowest effect concentration for extinction, a measure of nematode size) was 0.05 µM, the IC50 ([6]; HepG2, 1 h, read-out: HepG2 IC50 Galactose (MMP)) was 1850 nM and the IC50 ([6]; HepG2, 1 h, read-out: HepG2 IC50 Glucose (MMP)) was 1670 nM. For the same compound, the IC50 ([6]; HepG2, read-out: IC50 in HepG2 cells (MMP, tier-one retest)) was 40 nM, the Emax ([6]; HepG2, read-out: MMP assays efficacy (%) HepG2) was 109% and the “effect on oxygen consumption rate, Seahorse (in words)” value [7] was “effects similar to that of FCCP”. For the same compound, the “Potential Mechanism” value [8] was “Uncoupler at low concentrations (0.16-20 µM), and Uncoupler + inhibitor at high concentration (100 µM)”, the “effect on mitochondrial respiration (in words)” value [8] was “effects similar to those of FCCP” and the “uncoupler effect at (concentration) in the oxygen consumption assay” value [8] was 0.16 µM. The “I-ADP, % of control (O2 consumption rate)” value ([8]; 0.032 µM) was 99 (43.1) % of control, the “I-sub, % of control (O2 consumption rate)” value ([8]; 0.032 µM) was 116 (15.2) % of control and the “II-ADP, % of control (O2 consumption rate)” value (from here on “II-ADP, % of control”) ([8]; 0.032 µM) was 99 (67.2) % of control. For the same compound, the “II-sub, % of control (O2 consumption rate)” value (“II-sub, % of control” below) ([8]; 0.032 µM) was 108 (22.5) % of control, the “I-ADP, % of control (O2 consumption rate)” value ([8]; 0.16 µM) was 96 (41.8) % of control and the “I-sub, % of control (O2 consumption rate)” value ([8]; 0.16 µM) was 131 (17.1) % of control. For the same compound, the “II-ADP, % of control” value ([8]; 0.16 µM) was 112 (75.7) % of control, the “II-sub, % of control” value ([8]; 0.16 µM) was 119 (24.9) % of control and the “I-ADP, % of control (O2 consumption rate)” value ([8]; 0.8 µM) was 120 (52.1) % of control. The “I-sub, % of control (O2 consumption rate)” value ([8]; 0.8 µM) was 242 (31.7) % of control, the “II-ADP, % of control” value ([8]; 0.8 µM) was 106 (71.8) % of control and the “II-sub, % of control” value ([8]; 0.8 µM) was 180 (37.6) % of control. The “I-ADP, % of control (O2 consumption rate)” value ([8]; 4 µM) was 177 (76.8) % of control, the “I-sub, % of control (O2 consumption rate)” value ([8]; 4 µM) was 544 (71.3) % of control and the “II-ADP, % of control” value ([8]; 4 µM) was 124 (84.2) % of control. The “II-sub, % of control” value ([8]; 4 µM) was 359 (75.1) % of control, the “I-ADP, % of control (O2 consumption rate)” value ([8]; 20 µM) was 91 (39.4) % of control and the “I-sub, % of control (O2 consumption rate)” value ([8]; 20 µM) was 324 (42.4) % of control. For the same compound, the “II-ADP, % of control” value ([8]; 20 µM) was 80 (54.0) % of control, the “II-sub, % of control” value ([8]; 20 µM) was 281 (58.7) % of control and the “I-ADP, % of control (O2 consumption rate)” value ([8]; 100 µM) was 54 (28.6) % of control. For the same compound, the “I-sub, % of control (O2 consumption rate)” value ([8]; 100 µM) was 277 (37.3) % of control, the “II-ADP, % of control” value ([8]; 100 µM) was 35 (23.6) % of control and the “II-sub, % of control” value ([8]; 100 µM) was 139 (30.2) % of control. The “inhibitory effect at (concentration) on ATP content in the C. elegans assay” value [9] was 0.25 µM, the IC50 ([10]; read-out: ATP (HepG2, galactose) IC50) was 7010 nM and the IC50 ([10]; read-out: ATP (HepG2, glucose) IC50) was 6410 nM. The IC50 ([11]; read-out: IC50 in rat primary hepatocytes (MMP, tier-one retest)) was 70 nM, the IC50 ([11]; read-out: Rat hepatocytes IC50 (MMP)) was 340 nM and the minimal effective concentration [12] was 0.25 µM. The Parkin recruitment [13] was “Active”, the “Parkin translocation into mitochondria (in words)” value ([13]; 3 h) was “patterns similar to antimycin A and FCCP” and the IC50 [14] was 0.07 ± 0.04 µM.
